Data reported in patent US20090069319A1, “IMIDAZOPYRIDINE ANALOGS AND THEIR USE AS AGONISTS OF THE WNT-BETA-CATENIN CELLULAR MESSAGING SYSTEM” (Wyeth, priority 2007, published 2009).

Columns and labels:
[1] = Functional Dkk1-LRP5-TCF-Luciferase Assay in U2OS Cells (table columns: A=MAX FOLD Induction/DMSO CONTROL; B=fold induction @ 2.0 uM; C=fold induction @ 20.0 uM); type: cell-based, Human; conditions: Homo sapiens; for fold induction at 2 µM / fold induction at 20 µM: U2OS; for fold induction at 2 µM: 2.0 uM compound; for fold induction at 20 µM: 20.0 uM compound; for EC50: U2OS cells, TCF-luciferase reporter
Outline: (§1)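 U2OS cells co-transfected with 16×TCF-TK-firefly luciferase, TK-Renilla control, Wnt3a and Dkk1, then frozen; thawed cells (~5,000/well, ~5% FBS, phenol red-free RPMI) incubated ~20 h at 37° C. with compound (0.25% DMSO). Firefly luminescence (Bright-Glo) normalized to DMSO mean as fold induction.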

[2] = tested on: canonical Wnt-β-catenin cellular messaging system (16xTCF-TK-FireFly-Luci reporter, Wnt3a and Dkk1 co-transfected U2OS cells); assay: as above; type: cell-based, Human; conditions: maximum fold induction over DMSO control
Outline: as §1

c1ccc2cc(-c3ccnc4c3nc(-c3ccncc3)n4C3CCNCC3)ccc2c1 [7-(2-naphthyl)-3-piperidin-4-yl-2-pyridin-4-yl-3H-imidazo[4,5-b]pyridine]
fold induction at 2 µM [1]: 1.89 | fold induction at 20 µM [1]: 2.27 | A = MAX FOLD Induction/DMSO CONTROL [2]: 1.650

c1ccc2cc(-c3ccnc4c3ncn4C3CCNCC3)ccc2c1 [7-(2-naphthyl)-3-piperidin-4-yl-3H-imidazo[4,5-b]pyridine]
fold induction at 2 µM [1]: 5.4 | fold induction at 20 µM [1]: 0.063 | EC50 [1]: 0.725 µM | A = MAX FOLD Induction/DMSO CONTROL [2]: 3.881

CN(C)C(=O)N1CCC(n2cnc3c(-c4ccc5ccccc5c4)ccnc32)CC1 [N,N-dimethyl-4-[7-(2-naphthyl)-3H-imidazo[4,5-b]pyridin-3-yl]piperidine-1-carboxamide]
fold induction at 2 µM [1]: 1.94 | fold induction at 20 µM [1]: 2.09 | A = MAX FOLD Induction/DMSO CONTROL [2]: 1.080

O=C1OC2(c3ccc(O)cc3Oc3cc(O)ccc32)c2ccc(NC(=S)N3CCC(n4cnc5c(-c6ccc7ccccc7c6)ccnc54)CC3)cc21 [N-(3′,6′-dihydroxy-3-oxo-3H-spiro[2-benzofuran-1,9′-xanthen]-5-yl)-4-[7-(2-naphthyl)-3H-imidazo[4,5-b]pyridin-3-yl]piperidine-1-carbothioamide]
fold induction at 2 µM [1]: 1.4 | fold induction at 20 µM [1]: 6.49 | EC50 [1]: 10.7 µM | A = MAX FOLD Induction/DMSO CONTROL [2]: 12.158

CC(=O)Nc1ccc(-c2nc3c(-c4ccc5ccccc5c4)ccnc3n2C2CCNCC2)cc1 [N-{4-[7-(2-naphthyl)-3-piperidin-4-yl-3H-imidazo[4,5-b]pyridin-2-yl]phenyl}acetamide]
fold induction at 2 µM [1]: 1.99 | A = MAX FOLD Induction/DMSO CONTROL [2]: 1.710
